Measurements from patent publication US8168770B2, “Cloning, sequencing and expression of a gene encoding an eukaryotic amino acid racemase, and diagnostic, therapeutic, and vaccination applications of parasite and viral mitogens” (priority 1999, dated 2012).
“Also recorded” adds a separate entry of the source.

How the values were obtained:
[1] = tested on: splenocytes from BALB/c mice; experiment: In vitro proliferation assay of splenocytes (3H-thymidine uptake); type: cell-based, mouse; settings: for mitogenic activity of rTcPA45 in cultures supplemented with substrate: 50 μg/ml rTcPA45, increasing amounts of L- or D-proline, 3 mM to 50 mM; for cell proliferation with substrate alone: 50 mM L- or D-proline alone; for mitogenic activity of rTcPA45 pre-incubated with inhibitor: 50 μg/ml rTcPA45 pre-incubated 10 min at 37° C. with 1 mM inhibitor; for 3H-thymidine uptake: after 48 h, ConA 10 μg/ml, LPS 5 μg/ml, 5×10^4 cells/well
Protocol: Briefly, freshly recovered splenocytes from 8 week old male Balb/c mice seeded at a concentration of 5×10^4 cells/well were incubated for 24, 48 and 72 h in 5% FCS RPMI-1640 medium. A 16 h ^3H-thymidine pulse at 1 μCi/well was performed before harvesting. ^3H-Thymidine uptake was determined in a beta-plate liquid scintillation counter (LKB-Wallac). All points were done in triplicate and the corresponding standard deviation calculated. For comparison, ^3H-thymidine uptake after 48 h in the presence of ConA (10 μg/ml) and LPS (5 μg/ml) was 32000 c.p.m. and 3500 c.p.m., respectively. T-cell depletion was performed by incubating freshly recovered spleen cells for 30 min at 37° C. in the presence of anti-Thy 1.2 monoclonal antibody (Cedarlane) and rabbit complement (Cedarlane). In order to rule out a possible mitogenic effect due to LPS contamination in samples, proliferation assays were also performed on freshly recovered splenocytes from the LPS non-responder mouse strain C3H/Hej. Same levels of proliferation were verified. Balb/c mice were purchased from Charles River, France. C3H/Hej mice were maintained in our animal facilities.
In vitro proliferation is accomplished using freshly recovered splenocytes from BALB/c mice seeded at a density of 5×10^4 cells/well and incubated for 24, 48 and 72 h with increasing concentrations of total parasite supernatants or recombinant TcPa45 protein or other mitogen (0.07-200 μg/ml) with 0.5 μg/ml of the HPLC fractions, or with the conventionally used mitogens concanavalin A (10 μg/ml) and lipopolysaccharide (5 μg/ml) in 5% FCS in RPMI-1640 complete medium. T-cell depletion is accomplished by incubating freshly recovered spleen cells for 30 min. at 37° C. in the presence of monoclonal antibodies against Thy 1.2 and rabbit complement (Cedarlane, Le Perray en Yvelines, France). Analysis of proliferative activity of total splenocytes (5×10^4 cells/well) in the presence of 50 μg/ml enzymatically active rTcPA45 or other mitogen is also compared with the proliferation obtained using the same amounts of rTcPA45 protein or other mitogen lacking racemase activity (by heating for 10 min. at 30° C. or by long term storage at 4° C.). Inhibition of proliferation is obtained by adding to the splenocyte cultures 50 μg/ml rTcPA45 or other mitogen pre-incubated for 10 min. at 37° C. with 1 mM inhibitor, either specific (pyrrole-2-carboxylic acid) or nonspecific (iodoacetamide or iodoacetate). Competitive assays of proliferative activity by 50 μg/ml rTcPA45 or other mitogen are done by adding increasing concentrations of specific substrates i.e., proline racemase substrates (L- or D-proline) for the mitogen rTcPA45 ranging from 3 mM to 50 mM. Controls include the incubation of splenocytes (5×10^4 cells/well) with substrate alone, i.e., 50 mM L- or D-proline in RPMI medium alone for prline racemase. Cultures are collected after a 16-hour pulse or 1 μCi/well ^3H-thymidine uptake was determined in a beta-plate liquid scintillation counter (LKB-Wallac, Orsay, France). All data points are obtained in triplicate and the corresponding standard deviation is calculated.
5×10^5 naive spleen cells/well (96 well plate) were stimulated in vitro with different doses of rTcPA45 (ranging in FIG. 4b from 0.8 to 200 μg/ml final) for 24, 48 and 72 h, at 37° C., 5% CO2. Cultures were pulsed with ^3H-Thymidine (1 μCi/well) for 16-18 h before harvesting. ^3H-thymidine incorporation was obtained after counting using a beta-plate. Results present arithmetic means of c.p.m. (counts/minute) from 6 wells/dose of rTcPA45 or wells containing medium alone (+/−SD of the means).

rTcPA45 proline racemase = target: T1, rTcPA45 proline racemase (Trypanosoma cruzi, UniProt Q4DA80); type: biochemical; settings: inhibitors 6 mM to 100 mM
T1 construct: 6xHis (C); made in house; host or cells: E. coli (pET28b(+))
T1 sequence (Q4DA80 30-423): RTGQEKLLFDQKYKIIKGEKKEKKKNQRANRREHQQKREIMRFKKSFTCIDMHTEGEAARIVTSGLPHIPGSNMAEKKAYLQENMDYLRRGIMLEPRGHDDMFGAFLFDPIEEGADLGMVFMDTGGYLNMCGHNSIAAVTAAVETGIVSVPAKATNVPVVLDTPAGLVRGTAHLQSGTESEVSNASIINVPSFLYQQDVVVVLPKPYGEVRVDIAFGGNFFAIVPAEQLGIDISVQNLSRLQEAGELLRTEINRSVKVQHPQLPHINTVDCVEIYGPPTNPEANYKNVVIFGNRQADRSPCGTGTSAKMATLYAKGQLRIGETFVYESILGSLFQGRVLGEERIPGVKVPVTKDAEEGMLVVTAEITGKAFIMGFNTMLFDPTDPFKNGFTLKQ
Protocol: To investigate the genomic organization and transcription of the Tc45 gene, Southern and Northern blot analyses were done. FIG. 4 depicts the results of characterization of rTcPA45 activities. FIG. 4, part a, is an 8% SDS-PAGE gel of rTcPA45 (Coomasie blue staining). Part b depicts the proliferative activity of total splenocytes (5×10^4 cells/well) in the presence of increasing concentrations of rTcPA45 (μg/ml). […] Reaction conditions were: 0.2 M Na-acetate/25 mM β-mercaptoethanol buffer, pH6, rTcPA45 (3 μg/ml), 30 min incubation at 37° C. in 500 μl. The reaction was stopped by incubating for 10 min at 80° C. […] Reactions were carried out for 30 min at 37° C. and stopped for 5 min at 80° C. All reagents and inhibitors were purchased from Sigma. The shift in optical rotation was measured in a Polarimeter 241 MC (Perkin Elmer).
A suitable test for testing an active molecule inhibiting the polypeptide according to the invention is performed as follows: • The recombinant amino acid purified or native racemase is diluted in sodium acetate buffer or Tris or phophate on Hepes buffer at 3 micrograms per 500 microliters in the presence of 20 millmolar of beta mercepto ethanol and 10 to 80 millimolar of L or D substrate and containing various concentrations of active molecule to be tested. This reaction is incubated for 30 minutes at 37° C. and stopped by heating at 80° C. Variations in optical rotation are measured by a polarimeter.
3 μg of rTcPA45 was diluted in 500 μl of buffer (0.2M NaOAc, 20 mM β-mercaptoethanol, pH6.0) containing different concentrations of the substrate (10-80 mM or L- or D-proline). (See FIG. 4c.) The reaction was incubated for 30-60 minutes at 37° C. in a water bath, followed by heat inactivation of the enzyme for 10 minutes at 80° C. Each sample is diluted to 1.5 ml with water and the mixture submitted to measurement of optical rotation using a polarimeter, at 365 nm. A sample without enzyme is used as a control. […]
The percent of racemization of different concentrations of L-proline, D-proline, L-hydroxy-proline and D-hydroxy-proline substrates was calculated by incubating a 500-μl mixture of 3 μg TcPA45 and 10-80 mM substrate in 0.2 M sodium acetate and 25 mM β-mercaptoethanol, pH 6, for 30 min at 37° C. […] Water (1 ml) was then added, and the optical rotation was measured in polarimeter 241 MC (Perkin Elmer, Montignyle Bretonneux, France) at a wavelength of 365 nm, in a cell with a path length of 10 cm. […] The percent racemization of 80 mM L-proline as a function of pH was determined using 0.2 M sodium acetate, potassium phosphate and Tris-HCl buffers containing 25 mM β-mercaptoethanol; reactions were incubated for 30 min at 37° C. as described above. […]

O=C(O)[C@H]1CCCN1 [D-proline]
mitogenic activity of rTcPA45 in cultures supplemented with substrate [1]: affected considerably; also recorded: decrease
cell proliferation with substrate alone [1]: no cell proliferation

O=C(O)[C@@H]1CCCN1 [L-proline]
mitogenic activity of rTcPA45 in cultures supplemented with substrate [1]: affected considerably; also recorded: decrease
cell proliferation with substrate alone [1]: no cell proliferation

NC(=O)CI [iodoacetamide]
mitogenic activity of rTcPA45 pre-incubated with inhibitor [1]: abolished
inhibition of rTcPA45 enzymatic activity (racemization of 80 mM L-proline) (rTcPA45 proline racemase): inhibited to different extents

O=C(O)CI [iodoacetate]
mitogenic activity of rTcPA45 pre-incubated with inhibitor [1]: abolished
inhibition of rTcPA45 enzymatic activity (racemization of 80 mM L-proline) (rTcPA45 proline racemase): inhibited to different extents

O=C(O)/C=C\C(=O)O [maleic acid]
inhibition of rTcPA45 enzymatic activity (racemization of 80 mM L-proline) (rTcPA45 proline racemase): inhibited to different extents

O=C(O)c1ccc[nH]1 [pyrrole-2-carboxylic acid]
mitogenic activity of rTcPA45 pre-incubated with inhibitor [1]: abolished
inhibition of rTcPA45 enzymatic activity (racemization of 80 mM L-proline) (rTcPA45 proline racemase): inhibited to different extents

concanavalin A [ConA]
3H-thymidine uptake [1]: 32000 c.p.m.
3H-thymidine uptake ([1]; listed as concavalin A): 32,000 c.p.m.

lipopolysaccharide [LPS]
3H-thymidine uptake [1]: 3500 c.p.m.
3H-thymidine uptake ([1]; listed as lipopolysaccharide): 3,500 c.p.m.
